Measurements published in paper PMC8708274, “Unveiling the Membrane and Cell Wall Action of Antimicrobial Cyclic Lipopeptides: Modulation of the Spectrum of Activity” (Pharmaceutics, 2021).
Like-named read-outs stand apart in the source and are kept apart here. Positions of bridges follow the written chain, without caps; N, C: chain ends. Non-standard residues stand in square brackets, D forms with d. Residues, ends and D or L forms follow the SMILES beside them. *: point of attachment. dAoc(2) = CCCCCC[C@@H](N)C(=O)O; Heptanoyl = CCCCCCC(=O)*; Nle = CCCC[C@H](N)C(=O)O; Dab = NCC[C@H](N)C(=O)O

Columns and labels:
P. aeruginosa = assay: Transmission electron microscopy of treated bacteria; format: cell-based, Pseudomonas aeruginosa; conditions: 1xMIC, 2 h, room temperature, tryptone water
Experimental: (§1) Then, 500 µL of this culture were added to 50 mL of tryptone water for a concentration of ≈10^8 bacteria·mL^−1. Aliquots of 10 mL were incubated with the lipopeptide at the desired concentration for 2 h at room temperature, and bacterial cells were collected by centrifugation (12,857 g, 20 min). Samples were fixed with 2.5% glutaraldehyde in phosphate buffer for 2 h at 4 °C, washed with the same buffer, and post fixed with 1% osmium tetroxide in buffer containing 0.8% potassium ferricyanide at 4 °C. Then, the samples were dehydrated for 1 h in acetone, infiltrated in a graded series of Epon resin (Ted pella, Inc., Redding, CA, USA) during 2 days, and finally embedded in fresh Epon resin and polymerized at 60 °C during 48 h. Ultrathin sections were obtained using a Leica Ultracut UCT ultramicrotome (Leica, Vienna, Austria) and mounted on Formvar-coated copper grids. Sections were stained with 2% aqueous uranyl acetate and lead citrate and examined in a JEM-1010 electron microscope (Jeol, Tokyo, Japan).

[1] = tested on: Pseudomonas aeruginosa ATTC 27853; format: cell-based
[2] = tested on: Escherichia coli ATTC 25922; format: cell-based
[3] = tested on: Staphylococcus aureus ATTC 25923; format: cell-based
[4] = Kinetics of insertion into monolayers; format: binding; conditions: 25 min after injection, 10 mM Tris pH 7.4, 25 °C, average of three independent experiments (error < 10%)
ANTS/DPX vesicle leakage = conditions: 0.9 µM peptide (0.8% peptide mol fraction), lipid 107 µM, 25 °C, 10 mM Tris pH 7.4, ANTS fluorescence
Experimental: Large unilamellar vesicles (LUVs) of POPG, POPE/POPG (6:4), or POPC, alone or with the fluorescently labeled phospholipids NBD-PE or Rh-PE, were prepared by the evaporation of a mixture of the lipids and probes in CHCl3. The solvent was removed by a gentle stream of nitrogen gas followed by overnight storage under vacuum. The dried films were hydrated with Tris 10 mM pH 7.4 to the desired final lipid concentration and then sonicated in a bath type sonicator (Lab Supplies, Hickesville, NY, Model G112SPIT) until a clear dispersion was obtained (typically 3–5 min). […] The average diameter was determined by dynamic light scattering with a Malvern II-C Autosizer, with a z-diameter between 111 and 117 nm, and a polydispersity of 0.1. […] Moreover, they contained 0.2% Rh-PE for monitoring the fluorescence before and after the separation of the unencapsulated material, which was carried out by gel filtration on a Sephadex G-50 column eluted with 10 mM Tris 80 mM NaCl. In this way, the final lipid concentration was calculated taking into account the loss of lipid and the dilution of the sample.
To assess the leakage of co-encapsulated ANTS and DPX vesicles due to their interaction with peptides, fluorescence measurements were carried out at 25 °C in 1.5 mL 10 mM Tris buffer pH 7.4 on a SLM-Aminco AB-2 spectrofluorimeter with constant stirring. […]

[5] = Kinetics of insertion into monolayers; format: binding, Salmonella enterica serotype Minnesota Re 595; conditions: initial pressure 32 mN·m^−1, peptide 0.48 μM, 25 min after injection, 10 mM Tris pH 7.4, 25 °C, average of three independent experiments (error < 10%)
E. coli = assay: Transmission electron microscopy of treated bacteria; format: cell-based, Escherichia coli; conditions: 1xMIC, 2 h, room temperature, tryptone water
Experimental: as §1

[6] = broth microdilution, MHB, 5 × 10^5 CFU/mL, overnight 37 °C, triplicate, higher of the three

CCCCCCC(=O)N[C@@H](CCN)C(=O)N[C@H](C(=O)N[C@@H](CCN)C(=O)N[C@H]1CSSC[C@H](C(N)=O)NC(=O)[C@H](CCN)NC(=O)[C@H](CCN)NC(=O)[C@H](CCCC)NC(=O)[C@@H](CCCCCC)NC(=O)[C@H](CCN)NC1=O)[C@@H](C)O [spE-10] (Heptanoyl-[Dab]T[Dab]C[Dab][dAoc(2)][Nle][Dab][Dab][dC]-NH2; disulfide 4-10)
ultrastructural effect on P. aeruginosa (TEM) (P. aeruginosa): significant rupture of the cell membranes and cytoplasmic clear zones | MIC PA ([1]; ATTC 27853): 0.84 µM | MIC PA [1, 6]: 1 µg/mL | MIC EC ([2]; ATTC 25922): 6.7 µM | MIC EC [2, 6]: 8 µg/mL | MIC SA ([3]; ATTC 25923): > 27 µM | MIC SA [3, 6]: > 32 µg/mL | Increase in surface pressure (Δπ), POPE/POPG ([4]; POPE/POPG 6:4, initial pressure 32 mN·m^−1, peptide 0.48 μM): 8.2 mN·m^−1 | Increase in surface pressure (Δπ), POPC ([4]; initial pressure 32 mN·m^−1, peptide 0.48 μM): 1.8 mN·m^−1 | leakage from PE/PG vesicles (ANTS/DPX vesicle leakage): no detectable leakage | Increase in surface pressure (Δπ), LPS [5]: 14.8 mN·m^−1 | ultrastructural effect on E. coli (TEM) (E. coli): formation of intracellular membranous structures and cytoplasmic clear zones
